# Test results reported in US20060122195A1, “Sulphonamide compounds that modulate chemokine receptor activity (ccr4)” (priority 2003, published 2006).
# Assays:
# [1] = target: T1, human recombinant CCR4 receptor (Homo sapiens, UniProt P51679); assay: FMAT whole cell binding assay (FB-MDC binding to CHO-K1 cells expressing CCR4); conditions: inhibition of FB-MDC binding to CHO-K1 cells expressing human recombinant CCR4; two hours incubation at room temperature; mean
# T1 construct: Brussels, Belgium; host or cells: CHO-K1
# T1 sequence (P51679 1-360): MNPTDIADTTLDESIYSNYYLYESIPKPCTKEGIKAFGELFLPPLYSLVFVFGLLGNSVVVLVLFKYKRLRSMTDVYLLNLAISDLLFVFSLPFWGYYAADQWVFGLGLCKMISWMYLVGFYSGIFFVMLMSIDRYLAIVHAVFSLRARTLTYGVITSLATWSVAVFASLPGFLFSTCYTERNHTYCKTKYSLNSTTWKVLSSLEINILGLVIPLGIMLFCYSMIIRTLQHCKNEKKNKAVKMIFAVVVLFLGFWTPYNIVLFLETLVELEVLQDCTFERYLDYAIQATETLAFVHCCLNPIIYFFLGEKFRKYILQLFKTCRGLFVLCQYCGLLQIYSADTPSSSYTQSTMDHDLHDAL
# Description: FMAT Whole Cell Binding Assay
# CHO-K1 cells stably expressing the human recombinant CCR4 receptor (Euroscreen; Brussels, Belgium) were cultured in NUT.MIX.F—12(HAM) medium with glutamax-1, containing 10% (v/v) foetal bovine serum and 400 μg ml^−1 geneticin
# Cells were harvested at approximately 70% confluence by treatment with a cell dissociation buffer, and seeded at 5×10^3 cells/100 μl culture medium into wells of a black Costar clear-bottomed 96-well microtitre plates. Plates were incubated overnight at 37° C. in 5% CO2 and used the following day.
# Before use, the cell plates were washed twice with 100 μl Hanks balanced salt solution (HBSS). To each well was then added 65 μl of HBSS, 10 μL of 10% DMSO in HBSS±test compound and then 25 μL of 2.8 nM FB-MDC (Applied Biosystems). This fluorescent probe was prepared from a 10 μM stock in 0.08% (v/v) TFA/16% (v/v) acetonitrile, diluted into HBSS.
# After two hours incubation in the dark at room temperature, the plates were analysed in an FMAT8100 reader (Applied Biosystems) to measure fluorescence that was associated with binding of FB-MDC to the cells. Compound activity was determined as an pIC50 [log(concentration of compound that results in 50% inhibition)], comparing fluorescence in control and background wells.
Compound,melting point [°C],IC50 [1] [nM]
"COc1nc(SCC(O)c2nccs2)cnc1NS(=O)(=O)c1cccc(Cl)c1Cl (centres unmarked) [Example 15, 2,3-Dichloro-N-[5-[[2-hydroxy-2-(2-thiazolyl)ethyl]thio]-3-methoxypyrazinyl]-benzenesulfonamide]",–,398
"COc1nc(SCC(O)CO)cnc1NS(=O)(=O)c1cccc(Cl)c1Cl (centres unmarked) [Example 19, 2,3-Dichloro-N-[5-[(2,3-dihydroxypropyl)thio]-3-methoxypyrazinyl]benzenesulfonamide]",136 to 138,–
"COc1nc(SCC(O)c2ccccc2)cnc1NS(=O)(=O)c1cccc(Cl)c1Cl (centres unmarked) [Example 20, 2,3-Dichloro-N-[5-[(2-hydroxy-2-phenylethyl)thio]-3-methoxypyrazinyl]benzenesulfonamide]",141 to 143,–
"COc1nc(SCC(O)c2cccnc2)cnc1NS(=O)(=O)c1cccc(Cl)c1Cl (centres unmarked) [Example 21, 2,3-Dichloro-N-[5-[[2-hydroxy-2-(3-pyridinyl)ethyl]thio]-3-methoxypyrazinyl]benzenesulfonamide]",188 to 190,–
"COc1nc(SCC(N)c2cccnc2)cnc1NS(=O)(=O)c1cccc(Cl)c1Cl (centres unmarked) [Example 22, N-[5-[[2-Amino-2-(3-pyridinyl)ethyl]thio]-3-methoxypyrazinyl]-2,3-dichloro benzenesulfonamide]",175 to 178,–
"COc1nc(SCC(O)c2ccncc2)cnc1NS(=O)(=O)c1cccc(Cl)c1Cl (centres unmarked) [Example 23, 2,3-Dichloro-N-[5-[[2-hydroxy-2-(4-pyridinyl)ethyl]thio]-3-methoxypyrazinyl]benzenesulfonamide]",176 to 177,–
"COc1nc(SCC(O)c2ccccn2)cnc1NS(=O)(=O)c1cccc(Cl)c1Cl (centres unmarked) [Example 24, 2,3-Dichloro-N-[5-[[2-hydroxy-2-(2-pyridinyl)ethyl]thio]-3-methoxypyrazinyl]benzenesulfonamide]",143 to 145,–
"COC(=O)[C@@H](O)CSc1cnc(NS(=O)(=O)c2cccc(Cl)c2Cl)c(OC)n1 [Example 25, 3-[[5[[(2,3-Dichlorophenyl)sulfonyl]amino]-6-methoxypyrazinyl]thio]-(2R)-2-hydroxypropanoic acid, methyl ester]",88 to 90,–
"COc1nc(SCC(N)c2ccccn2)cnc1NS(=O)(=O)c1cccc(Cl)c1Cl (centres unmarked) [Example 26, N-[5-[[2-Amino-2-(2-pyridinyl)ethyl]thio]-3-methoxypyrazinyl]-2,3-dichlorobenzenesulfonamide]",172 to 174,–
"COc1nc(SCC(N)c2nccn2C)cnc1NS(=O)(=O)c1cccc(Cl)c1Cl (centres unmarked) [Example 27, N-[5-[[2-Amino-2-(1-methyl-1H-imidazol-2-yl)ethyl]thio]-3-methoxypyrazinyl]-2,3-dichlorobenzenesulfonamide]",187 to 189,–
"COc1nc(SCC(N)c2nccs2)cnc1NS(=O)(=O)c1cccc(Cl)c1Cl (centres unmarked) [Example 30, N-[5-[[2-Amino-2-(2-thiazolyl)ethyl]thio]-3-methoxypyrazinyl]-2,3-dichlorobenzenesulfonamide]",168 to 169,–

# Continued, values first:
melting point [°C],IC50 [1] [nM],Compound
164 to 168,–,COC(=O)[C@@H](N)CSc1nc(OC)c(NS(=O)(=O)c2cccc(Cl)c2Cl)nc1C
170 to 174,–,"COC(=O)[C@@H](N)CSc1cnc(NS(=O)(=O)c2cccc(Cl)c2Cl)c(OC)n1 [Example 2, S-[5[[(2,3-Dichlorophenyl)sulfonyl]amino]-6-methoxypyrazinyl]-L-cysteine, methyl ester]"
180 to 190,–,"COc1nc(SC[C@H](N)C(=O)O)cnc1NS(=O)(=O)c1cccc(Cl)c1Cl [Example 3, S-[5-[[(2,3-Dichlorophenyl)sulfonyl]amino]-6-methoxypyrazinyl]-L-cysteine]"
148 to 152,631,"COc1nc(SC[C@H](N)C(N)=O)cnc1NS(=O)(=O)c1cccc(Cl)c1Cl [Example 4, (2R)-2-Amino-3-[[5-[[(2,3-dichlorophenyl)sulfonyl]amino]-6-methoxypyrazinyl]thio]propanamide]"
160 to 164,–,"CNC(=O)[C@@H](N)CSc1cnc(NS(=O)(=O)c2cccc(Cl)c2Cl)c(OC)n1 [Example 5, (2R)-2-Amino-3-[[5-[[(2,3-dichlorophenyl)sulfonyl]amino]-6-methoxypyrazinyl]thio]-N-methyl-propanamide]"
187 to 190,–,"COc1nc(SC[C@H](N)C(=O)N(C)C)cnc1NS(=O)(=O)c1cccc(Cl)c1Cl [Example 6, (2R)-2-Amino-3-[[5-[[(2,3-dichlorophenyl)sulfonyl]amino]-6-methoxypyrazinyl]thio]-N,N-dimethylpropanamide]"
170 to 173,–,"COC(=O)[C@@H](N)CSc1nc(OC)c(NS(=O)(=O)c2cccc(Cl)c2Cl)nc1Cl [Example 8, S-[3-Chloro-5-[[(2,3-dichlorophenyl)sulfonyl]amino]-6-methoxypyrazinyl]-L-cysteine, methyl ester]"
170 to 173,–,"COc1nc(SC[C@H](N)C(=O)O)c(Cl)nc1NS(=O)(=O)c1cccc(Cl)c1Cl [Example 9, S-[3-Chloro-5[[(2,3-dichlorophenyl)sulfonyl]amino]-6-methoxypyrazinyl]-L-cysteine]"
255 to 256,–,"COc1nc(SC[C@H](N)CO)c(Cl)nc1NS(=O)(=O)c1cccc(Cl)c1Cl [Example 10, N-[5-[[(2R)-2-Amino-3-hydroxypropyl]thio]-6-chloro-3-methoxypyrazinyl]-2,3-dichlorobenzenesulfonamide]"
150 to 155,–,"CNC(=O)[C@@H](N)CSc1nc(OC)c(NS(=O)(=O)c2cccc(Cl)c2Cl)nc1Cl [Example 28, (2R)-2-Amino-3-[[3-chloro-5-[[(2,3-dichlorophenyl)sulfonyl]amino]-6-methoxypyrazinyl]thio]-N-methylpropanamide]"
68 to 80,–,"CNC(=O)[C@@H](N)CSc1nc(OC)c(NS(=O)(=O)c2cccc(Cl)c2Cl)nc1C [Example 29, (2R)-2-Amino-3-[[5[[(2,3-dichlorophenyl)sulfonyl]amino]methoxy-3-methylpyrazinyl]thio]-N-methylpropanamide]"
